# Measurements from patent US20240366612A1, “COMPOUNDS AND METHODS FOR MODULATING NUCLEIC ACID SPLICING” (REMIX THERAPEUTICS INC., priority 2021, published 2024).
# Counter-ions that a name gives are not always drawn.
# Assays:
# [1] = tested on: MYB mRNA; assay: Splicing RT-qPCR assay, MYB canonical (CJ) and alternative (AJ) junction mRNA; type: cell-based; settings: Homo sapiens, A673 or K562 cells, 24 hours treatment; for IC50: decrease in CJ mRNA; for AC50: increase in AJ mRNA
# Method: Compounds described herein were used to modulate RNA transcript abundance in cells. The expression of a target mRNA was measured by detecting the formation of an exon-exon junction in the canonical transcript (CJ). A compound mediated exon-inclusion event was detected by observing an increase in formation of a new junction with an alternative exon (AJ). Real-time qPCR assays were used to detect these splicing switches and interrogate the potency of various compounds towards different target genes. A high-throughput real time quantitative PCR (RT-qPCR) assay was developed to measure these two isoforms of the mRNA (CJ and AJ) for exemplary genes, such as HTT, SMN2, and MYB, together with a control housekeeping gene, GAPDH or GUSB or PPIA, used for normalization. Briefly, the A673 or K562 cell line was treated with various compounds described herein (e.g., compounds of Formula (I)). After treatment, the levels of the HTT, MYB, or SMN2 mRNA targets were determined from each sample of cell lysate by cDNA synthesis followed by qPCR.
# • Cells-to-CT 1-step kit: ThermoFisher A25602, Cells-to-CT lysis reagent: ThermoFisher 4391851C, TaqMan™ Fast Virus 1-Step Master Mix: ThermoFisher 4444436 • GAPDH: VIC-PL, ThermoFisher 4326317E (Assay: Hs99999905_ml)—used for K562/suspension cell lines • GUSB: VIC-PL, ThermoFisher 4326320E (Assay: Hs99999908_ml)—used for K562/suspension cell lines • PPIA: VIC-PL, ThermoFisher 4326316E (Assay: Hs99999904_ml)—used for A673/adherent cell lines
# The A673 cell line was cultured in DMEM with 10% FBS. Cells were diluted with full growth media and plated in a 96-well plate (15,000 cells in 100 ul media per well). The plate was incubated at 37° C. with 5% CO2 for 24 hours to allow cells to adhere. An 11-point 3-fold serial dilution of the compounds was made in DMSO then diluted in media in an intermediate plate. Compounds were transferred from the intermediate plate to the cell plate with the top dose at a final concentration of 10 uM in the well. Final DMSO concentration was kept at or below 0.25%. The cell plate was returned to the incubator at 37° C. with 5% CO2 for an additional 24 hours.
# The K562 cell line was cultured in IMDM with 10% FBS. For K562, cells were diluted with full growth media and plated in either a 96-well plate (50,000 cells in 50 uL media per well) or a 384-well plate (8,000-40,000 cells in 45 uL media per well). An 11-point 3-fold serial dilution of the compounds were made in DMSO then diluted in media in an intermediate plate. Compound was transferred from the intermediate plate to the cell plate with the top dose at a final concentration of 10 uM in the well. Final DMSO concentration was kept at or below 0.25%. Final volume was 100 uL for 96-well plate and 50 uL for 384-well plate. The cell plate was then placed in an incubator at 37° C. with 5% CO2 for 24 hours.
# The cells were then gently washed with 50 uL-100 uL cold PBS before proceeding to addition of lysis buffer. 30 uL-50 μL of room temperature lysis buffer with DNAse I (and optionally RNAsin) was added to each well. Cells were shaken/mixed thoroughly at room temperature for 5-10 minutes for lysis to take place and then 3 uL-5 μL of room temperature stop solution was added and wells were shaken/mixed again. After 2-5 minutes, the cell lysate plate was transferred to ice for RT-qPCR reaction setup. The lysates could also be frozen at −80° C. for later use.
# In some cases, a direct lysis buffer was used. An appropriate volume of 3×lysis buffer (10 mM Tris, 150 mM NaCl, 1.5%-2.5% Igepal and 0.1-1 U/uL RNAsin, pH 7.4) was directly added to either K562 or A673 cells in media and mixed by pipetting 3 times. The plates were then incubated at room temperature with shaking/rocking for 20-50 minutes to allow for lysis to take place. After this time, the cell lysate plate was transferred to ice to set up for the RT-qPCR reactions. The lysates could also be frozen at −80° C. for later use. […]
# [2] = tested on: HiBiT-tagged MYB protein in K562 cells; assay: HiBiT protein abundance assay, MYB; type: cell-based, human; settings: HiBiT-modified K562 cells, 24 hours, luminescence
# Method: (§1) Compounds described herein were used to screen for effects on quantitative protein abundance using a HiBit assay system (Promega). Quantitative protein abundance was determined by measuring the protein levels of HiBit-tagged protein targets expressed in cell culture via luminescence using the Nano-Glo HiBiT Lytic Detection System, which uses a split complementation assay format to reconstitute NanoBiT enzyme to generate a luminescent signal. A protein abundance assay was developed such that endogenous protein targets could be modified with the HiBiT peptide tag and their abundance could be assessed after compound treatment. Briefly, K562 cell lines containing a HiBiT-modification were treated with various compounds described herein (e.g., compounds of Formulas (I), (II), or (III)). After treatment for 24 hours, the protein abundance of a specific target was determined by measuring luminescence.
# (§2) • Promega Nano-Glo HiBiT Lytic Detection System (cat #N3030) • Corning 384-well TC-treated microplates (cat #3570) • Synthego Engineered Cells Knock-In Clones
# (§3) Cells were maintained in IMDM with 10% FBS. Before the assay, cells were diluted with […] growth media (IMDM+1% FBS media) and were seeded in a 384-well plate at a density of 10000 cells/well (for each cell line listed in Table 5). Each compound was prepared as a 10-point 3-fold serial dilution in DMSO with the top dose at a final concentration of 10 μM in the well. Unmodified K562 cells were added at the previously specified density with DMSO to serve as an assay baseline and positive control (PC) and DMSO only with the respective modified cell lines was added to the negative control (NC) columns. Final DMSO concentration was kept at or below 0.25%. Treated cell plates were placed in an incubator at 37° C. with 5% CO2 for 24 hours. After 24 hours, 25 μL of Complete HiBit Lytic reagent was added to each well at room temperature (e.g. one plate requiring 10 mL Lytic Buffer, 100 μL LgBiT Protein, 200 μL Lytic Substrate), shaken for 5 minutes at 600 RPM, then left to sit for 10 minutes for signal to stabilize before reading on a Spark Cyto plate reader (Tecan) with a 500 ms measurement time.
# (§4) To determine compound effects on protein abundance of each target in Table 5, the percent response for each respective cell line was calculated at each compound concentration as follows:
# (§5) For the normalized response at each concentration, a four-parameter logistical regression was fit to the data and the response was interpolated at the 50% value to determine a concentration for protein abundance at 50% (IC50) the untreated control.
# [3] = tested on: HiBiT-tagged HTT protein in K562 cells; assay: HiBiT protein abundance assay, HTT; type: cell-based, human; settings: HiBiT-modified K562 cells, 24 hours, luminescence
# Method: as §1, §2, §3, §4, §5
# [4] = Cell Titer Glo 2.0 cell viability assay; settings: human, K562 cells
# Method: Compounds described herein were screened for toxicity in K562 (human chronic myelogenous leukemia) cells using a Cell Titer Glo 2.0 assay.
# • Promega CellTiter-Gbo® 2.0 Cell Viability Assay (cat #G9241) • Corning 384-well TC-treated microplates (cat #3570)
# Cells were plated at 500 cells/well (K562 cells) in 45 μL of IMDM supplemented with 10% FBS in a 384-well opaque plate. Wells containing only medium were used as a blank control. Test compounds (e.g., compounds of Formula (I), (II), and (III)) were first serially diluted in DMSO then diluted 1:100 with IMDM+10% FBS. The final concentration of DMSO was 0.1% in each well. The cells were incubated for 72 hours at 37° C. and 5% CO2 before assaying with Cell Titer Glo 2.0 reagent.
SMILES,IC50 [1] [µM],AC50 [1] [µM],IC50 [2] [µM],IC50 [3] [µM],GI50 at 72 h [4] [µM]
"Cc1cn2cc(-c3cc4ncn(N5CCNCC5)c(=O)c4s3)cc(F)c2n1 [Compound 269, 6-{8-fluoro-2-methylimidazo[1,2-a]pyridin-6-yl}-3-(piperazin-1-yl)thieno[3,2-d]pyrimidin-4-one]",0.1 to 1,0.1 to 1,0.1 to 1,0.1 to 1,0.1 to 1
"Cc1cn2cc(-c3nc4sc(C5CCNCC5)cc4c(=O)[nH]3)cc(F)c2n1 [Compound 250, 2-(8-fluoro-2-methylimidazo[1,2-a]pyridin-6-yl)-6-(piperidin-4-yl)thieno[2,3-d]pyrimidin-4(3H)-one]",0.1 to 1,0.1 to 1,0.1 to 1,0.1 to 1,0.1 to 1
Cc1cn2cc(-c3cc4ncn(C5CCNCC5)c(=O)c4s3)cc(C)c2n1 [Compound 261],0.1 to 1,0.1 to 1,0.1 to 1,0.1 to 1,1 to 10
"Cc1cn2cc(-c3cc4ncn(C5CCNCC5(F)F)c(=O)c4s3)cc(F)c2n1 (stereo not drawn) [Compound 274, 3-(3,3-difluoropiperidin-4-yl)-6-{8-fluoro-2-methylimidazo[1,2-a]pyridin-6-yl}thieno[3,2-d]pyrimidin-4-one]",> 10,> 10,> 10,> 10,> 10
"Cc1cc(-c2cc3ncn(C4CCNCC4)c(=O)c3s2)cc2cn(C)nc12 [Compound 236, 6-(2,7-dimethyl-2H-indazol-5-yl)-3-(piperidin-4-yl)thieno[3,2-d]pyrimidin-4(3H)-one]",0.1 to 1,0.1 to 1,< 0.1,< 0.1,0.1 to 1
"Cc1cn2cc(-n3cnc4nc(N(C)C5CC(C)(C)NC(C)(C)C5)sc4c3=O)cc(F)c2n1 [Compound 227, 6-(8-fluoro-2-methylimidazo[1,2-a]pyridin-6-yl)-2-(methyl(2,2,6,6-tetramethylpiperidin-4-yl)amino)thiazolo[4,5-d]pyrimidin-7(6H)-one, formate]",> 10,> 10,> 10,> 10,–
"Cc1cn2nc(-c3cc(=O)n4cc(N5CCNC6(CC6)C5)sc4n3)cc(C)c2n1 [Compound 211, 7-(2,8-dimethylimidazo[1,2-b]pyridazin-6-yl)-2-(4,7-diazaspiro[2.5]octan-7-yl)-5H-thiazolo[3,2-a]pyrimidin-5-one]",1 to 10,0.1 to 1,1 to 10,1 to 10,1 to 10
"Cc1cn2cc(-c3nn4c(=O)cc(N(C)C5CC(C)(C)NC(C)(C)C5)nc4s3)cc(F)c2n1 [Compound 215, 2-(8-fluoro-2-methylimidazo[1,2-a]pyridin-6-yl)-7-(methyl(2,2,6,6-tetramethylpiperidin-4-yl)amino)-5H-[1,3,4]thiadiazolo[3,2-a]pyrimidin-5-one]",1 to 10,1 to 10,1 to 10,> 10,–
Cc1cn2nc(-c3cc4ccn(C5CCN(C)CC5)c(=O)c4s3)cc(C)c2n1 [Compound 809],1 to 10,1 to 10,1 to 10,1 to 10,1 to 10
"Cc1cn2nc(-c3cc4ncn(C5CCNCC5)c(=O)c4s3)cc(C)c2n1 [Compound 238, 6-(2,8-dimethylimidazo[1,2-b]pyridazin-6-yl)-3-(piperidin-4-yl)thieno[3,2-d]pyrimidin-4(3H)-one]",0.1 to 1,0.1 to 1,0.1 to 1,0.1 to 1,1 to 10
Cc1cn2nc(-c3nc4cnn(C5CCNCC5)c(=O)c4s3)cc(C)c2n1 [Compound 810],0.1 to 1,0.1 to 1,0.1 to 1,0.1 to 1,0.1 to 1
"Cc1cc(-c2cc3cnn(C4CCNCC4)c(=O)c3s2)cc2cn(C)nc12 [Compound 802, 2-(2,7-dimethyl-2H-indazol-5-yl)-6-(piperidin-4-yl)thieno[2,3-d]pyridazin-7(6H)-one]",0.1 to 1,0.1 to 1,0.1 to 1,< 0.1,0.1 to 1
"Cc1cn2cc(-c3cc4ncn(C5CCNCC5)c(=O)c4s3)cc(F)c2n1 [Compound 235, 6-(8-fluoro-2-methylimidazo[1,2-a]pyridin-6-yl)-3-(piperidin-4-yl)thieno[3,2-d]pyrimidin-4(3H)-one]",0.1 to 1,0.1 to 1,0.1 to 1,0.1 to 1,0.1 to 1
"Cc1cc(-c2nc3ncn(C4CCNCC4)c(=O)c3s2)cc2cn(C)nc12 [Compound 233, 2-(2,7-dimethyl-2H-indazol-5-yl)-6-(piperidin-4-yl)thiazolo[4,5-d]pyrimidin-7(6H)-one]",0.1 to 1,< 0.1,< 0.1,< 0.1,0.1 to 1
"Cc1cn2nc(-c3cc(=O)n4cc(N(C)C5CC(C)(C)NC(C)(C)C5)sc4n3)cc(C)c2n1 [Compound 205, 7-(2,8-dimethylimidazo[1,2-b]pyridazin-6-yl)-2-(methyl(2,2,6,6-tetramethylpiperidin-4-yl)amino)-5H-thiazolo[3,2-a]pyrimidin-5-one]",1 to 10,1 to 10,1 to 10,1 to 10,–
